In EP1826280A2 (priority 1992, dated 1994):

System: vascular smooth muscle cells
Assay: 24 hour 3H-leucine protein inhibition and 3H-thymidine DNA synthesis inhibition assays
Assay type: cell-based
Settings: 24 hour exposure; for inhibition of DNA synthesis compared with protein synthesis: in the presence of 5% FBS
Procedure: The ability of various therapeutic agents to inhibit DNA synthesis and protein synthesis in vascular smooth muscle cells was tested. ^3H-leucine and ^3H-thymidine uptake and cytotoxicity assays were conducted in accordance with the following protocols.
^3H-leucine uptake: Vascular smooth muscle cells at 40,000 cells/ml were seeded in sterile 24 well plates at 1ml/well. The plates were incubated overnight at 37°C, 5% CO2, 95% air in a humidified atmosphere (saturation). Log dilutions of the therapeutic agent of interest were incubated with the vascular smooth muscle cells for 5 minutes or 24 hours. Samples of the therapeutic agents were diluted in DMEM:F-12 media (Whittaker Bioproducts, Walkersville, Maryland) with 5% fetal bovine serum (GBS, Gibco) and 5% Serum Plus® (JRH Biologicals). Following therapeutic agent incubation, the solution was aspirated, and 1ml/well of 0.5 microcurie/ml ^3H-leucine in leucine free DMEM (Dulbecco's Modified Eagle's Medium) with 5% Serum Plus® was added. The plates were re-incubated overnight at 37°C, 5% CO2 in a humidified atmosphere. The cells were visually graded using an inverted microscope using a scoring scale to determine viability and cell number. The 1 to 3 grade is based upon percent of cell viability and number compared to control wells, with 3=100%, 2=70%-100% and 1=0%-70%. A record of this scoring assisted in determining the immediate cytotoxic effect of the therapeutic agents. The media was then aspirated, and the cells were washed twice with cold 5% TCA. 400 microliters of 0.2M KaOH was added per well, and the plates were incubated for two hours at room temperature on a rotating platform. 200 microliters per well of the cell solution was transferred into plastic scintillation vials (Bio-Rad Laboratories), and 4 milliliters of Bio-Safe® II liquid scintillation fluid was added prior to vortexing. Vials were counted on a Beckman LS2600 Liquid scintillation Counter interfaced with Beckman "Data Capture" software for conversion to a Lotus 1-2-3® file and analysis using Lotus 1-2-3®.
^3H-thymidine uptake: Vascular smooth muscle cells were incubated in complete media with 5% FBS (Gibco) overnight at 37°C in a humidified, 5% CO2 environment in sterile 24 well plates. The media was aspirated from the wells and serum free media supplemented with growth factors (DMEM: F-12 basal media supplemented with growth factor cocktail catalog number I1884 which contains insulin (5 micrograms/ml), transferrin (5 micrograms/ml) and sodium selenite (5 nanograms/ml) available from Sigma Chemical, St. Louis, Missouri) was added. Cells were incubated in this media for 24 hours. For a 5 minute therapeutic agent exposure, log dilutions of the therapeutic agent were incubated with the cells in complete media. After 5 minutes and media aspiration, 1 ml/well of 1.0 microcurie/ml ^3H-thymidine dispersed in complete media was added. The 24 hour exposure involved incubation of the cells with 1 ml/well of 1.0 microcurie/ml of ^3H-thymidine dispersed in complete media and log dilutions of the therapeutic agent being tested. In both exposure trials, the cells were then incubated overnight at 37°C in a humidified, 5% CO2 environment. The cells were visually scored for viability and cell number. […] Vials were counted on a Beckman LS2800 Liquid Scintillation counter interfaced with Beckman "Data Capture" software for conversion to a Lotus 1-2-3® file and analysis using Lotus 1-2-3®.

Compound	therapeutic range (area under the curve of 3H-leucine assay greater than that of 3H-thymidine assay)	inhibition of DNA synthesis compared with protein synthesis
O=[N+]([O-])OCC(CO[N+](=O)[O-])O[N+](=O)[O-] [nitroglycerin]	showed an available therapeutic range	to a greater extent than they inhibited protein synthesis
CN[C@@H]1C[C@H]2O[C@@](C)([C@@H]1OC)n1c3ccccc3c3c4c(c5c6ccccc6n2c5c31)C(=O)NC4 [staurosporin]	showed an available therapeutic range	–
Cc1ccc(C(=O)Nc2ccc(S(=O)(=O)O)c3cc(S(=O)(=O)O)cc(S(=O)(=O)O)c23)cc1NC(=O)c1cccc(NC(=O)Nc2cccc(C(=O)Nc3cc(C(=O)Nc4ccc(S(=O)(=O)O)c5cc(S(=O)(=O)O)cc(S(=O)(=O)O)c45)ccc3C)c2)c1 [suramin]	showed an available therapeutic range	to a greater extent than they inhibited protein synthesis
